Earlier results in patent EP2908850B1, “A COMPOSITION COMPRISING GLUCORAPHANIN, MYROSINASE AND A BUFFERED SOLUTION FOR USE IN THE TREATMENT OF NEURODEGENERATIVE DISEASES” (Bramanti, Placido, priority 2012, dated 2014).

Details: state of the art statement

Question: Which solubility in water does the source give for C[S+]([O-])CCCCN=C=S (racemic) [RS,SS-SFN, sulforaphane] here?
Answer: slightly soluble in water

Question: What about the stability of the same compound?
Answer: unstable
